Results: US20130023002A1, “USE OF A SUBSTRATE IN A METHOD FOR MEASURING THE ACTIVITY OF AVAILABLE PROTEOLYTIC ENZYMES” (priority 2011, published 2013)

Experiments:
[1] = tested on: low-molecular-weight heparin, Fragmine® (anti-Xa activity, factor Xa); assay: Evaluation of neutralization of low-molecular-weight heparin by enzyme substrates (anti-Xa activity); assay type: biochemical
From the text: (§1) Before referring to the diagrams of the figures, the evaluation method used to quantify the neutralizing effect of the proteolytic enzyme substrates with respect to the glycosaminoglycans in a blood sample, and in particular a plasma, will be described. This evaluation method makes it possible to use both unfractionated heparins and low-molecular-weight heparins. In addition, the method endeavors to test the activity of factor Xa, located at the crossroads of two enzymatic cascades resulting in the formation of thrombin. Moreover, antithrombin, which is a natural inhibitor of thrombin generation, controls the reaction. As soon as it appears, factor Xa couples to its natural substrate, prothrombin, so as to form thrombin. The heparin contained in the sample forms, itself, a complex with antithrombin, which complex promotes the inhibition of factor Xa.
Thus, a chromogenic substrate based on para-nitroaniline, which factor Xa hydrolyzes, is used and the release of the para-nitroaniline, which can be measured optically, is then inversely proportional to the concentration of heparin present in the medium. A measurement of the anti-Xa activity is thus deduced therefrom.
More specifically, the percentage neutralization by the substrate is determined as being the ratio of the difference in the variation in anti-Xa activity in the medium containing the physiological saline and in the medium containing the substrate, between two heparin concentrations, and only the variation in activity in the medium containing the physiological saline, between the same two heparin concentrations, this ratio being multiplied by 100 in order to obtain the result as percentage neutralization.
The percentage neutralization can also be written more compactly: 100×(1−ΔA1/ΔA2), wherein ΔA1 corresponds to the variation in activity in the presence of substrate and ΔA2 to the variation in the presence of physiological saline. Thus, the parallel measurement of the variation in the presence of physiological saline makes it possible to establish the reference in each series of measurements.
Still in this first part of the description, the abovementioned evaluation method was implemented with a low-molecular-weight heparin, Fragmine®.
The results of the percentage neutralization of this heparin for the three substrate variants described above, V(1), V(2) and V(3), have been reported in the table below.

[2] = tested on: unfractionated calcium heparin Calciparine® (anti-Xa activity, factor Xa); assay: Evaluation of neutralization of unfractionated heparin by enzyme substrates (anti-Xa activity, para-nitroaniline chromogenic substrate); assay type: biochemical; conditions: FIG. 1, qualitative
From the text: as §1
Thus, a chromogenic substrate based on para-nitroaniline, which factor Xa hydrolyzes, is used and the release of the para-nitroaniline, which can be measured optically, is then inversely proportional to the concentration of heparin present in the medium. […]
In this first example, the heparin used is an unfractionated calcium heparin sold under the brand name: “Calciparine®”. According to the evaluation method, the anti-Xa activity is recorded and transferred onto the y-axis, as a function of the heparin concentration of the medium. […]

Q: For EtM-VR-Rhod110-Ac [V(1)], which percentage neutralization ([1]; Fragmine® 0.42 IU/ml) is on record?
A: 10%

Q: And the percentage neutralization ([1]; Fragmine® 0.83 IU/ml)?
A: 12%

Q: And the percentage neutralization ([1]; Fragmine® 1.25 IU/ml)?
A: 13%

Q: What about the percentage neutralization ([1]; Fragmine® 1.67 IU/ml) of the same substance?
A: 15%

Q: How did the “effect of substrate with respect to heparin (curve compared with physiological saline)” value [2] turn out when Z-GGR-AMC was run?
A: no notable effect with respect to heparin
